System: EpiDerm™ Skin Model
Test: Skin Irritancy Potential Test via in vitro skin equivalents (IL-1α release)
Type: cell-based, human
Conditions: Table 12; vs C30
Description: The EpiDerm™ Skin Model provided by MatTek Corporation was used in this study. The target cells are epithelial, derived from human skin. The test materials are applied directly to the culture surface, at air interface, so that undiluted and/or end use dilutions can be tested directly.
The experimental design used in this study consisted of a definitive assay to determine the release of one cytokine. Where tissue viability is not decreased by 50% as compared to the negative control tissue (as measured by MTT reduction), the inflammatory potential is then measured by the synthesis/release of the cytokine IL-1α.
In the treatment phase six skin equivalents are used for each diluted test product, individual results are averaged to provide overall response. 100 μl is applied to each equivalent for 1 hour of diluted product (10% dilution) exposure followed by 5 rinses of Ca, Mg Free PBS solution. Each Tissue is placed in a 6 well tray with assay medium for each rinse and returned to incubation for 24 hours. Following incubation tissues are assessed for cytokine responses of IL-1α.

| Substance | effect of PGE on mildness of the surfactant system |
| --- | --- |
| Polyglycerol-10-Myristate [PG-10-M] | improve the mildness |
| Polyglycerol-10-Oleate [PG-10-O] | improve the mildness |

Source: patent US8338348B2, “Skin cleansing compositions with polyglycerol esters and hydrophobically modified polymers” (Johnson & Johnson Consumer Companies, Inc., priority 2010, dated 2012)
